Source: patent publication US5229419A, “Chemotherapeutically active acetogenins” (Purdue Research Foundation, priority 1992, dated 1993)
Values after ≈ are worked out from the molar mass of the structure shown.

What was measured:
[1] = test system: 9KB (human nasopharyngeal carcinoma); assay: 9KB cytotoxicity; type: cell-based
Description: Occasional checks in the potato disc (PD) assay assured us that antitumor activity was present [Ferrigni et al., J. Nat. Prod., 45; 679-686 (1982)]. Cytotoxicity tests were performed at the Purdue Cell Culture Laboratory, Purdue Cancer Center, using standard protocols for 9KB (human nasopharyngeal carcinoma) and 9PS (a chemically-induced murine lymphocytic leukemia) [Suffness et al., Methods In Cancer Research. Vol. 16: 73 (1979), V. T. DeVita, Jr. and H. Busch eds., Academic Press, New York], 9ASK (astrocytoma reversal) [Lgarashi et al., Cell Struct. and Funct., 3: 107 (1978)], A-549 (human lung carcinoma) [Giard et al., J. Nat. Cancer Inst., 51: 1417-1423 (1973)], and HT-29 (human colon adenocarcinoma) [Fogh J. (ed.), Human Tumor Cells, In Vitro, Plenum Press, New York: 115-159 (1975)].
Anticancer activity is a potential use even for the crude extract. The bioassay results for the lethality of brine shrimp (BST), the inhibition of crown gall tumors on potato discs (PD), the reversal in morphology of db-cAMP induced AC glioma cells from that of mature, differentiated astrocytes to that of immature AC glioma cells (mouse brain cells) (9ASK), the dose that inhibits cell growth to one-half that of untreated poorly differentiated human epidermic carcinoma (9KB), the dose that inhibits cell growth to one-half that of a methylcholanthrene-induced lymphoid neoplasm in a DBA/2 mouse (9PS), and the percent displacement in a protein kinase C test for initial extract fractions are shown in Table 1. Obviously, the bioactivity is concentrated in F005.

H125 = assay: NCI in vitro cytotoxicity, non-small cell lung cancer; type: cell-based; conditions: Homo sapiens
HCC-2998 = assay: NCI in vitro cytotoxicity, colon cancer; type: cell-based; conditions: Homo sapiens
DLD-1 = assay: NCI in vitro cytotoxicity, colon cancer; type: cell-based; conditions: Homo sapiens
H69 = assay: NCI in vitro cytotoxicity, small cell lung cancer; type: cell-based; conditions: Homo sapiens
EKV-X = assay: NCI in vitro cytotoxicity, non-small cell lung cancer; type: cell-based; conditions: Homo sapiens, EKVX
A2780 = assay: NCI in vitro cytotoxicity, ovarian cancer; type: cell-based; conditions: Homo sapiens
H322 = assay: NCI in vitro cytotoxicity, non-small cell lung cancer; type: cell-based; conditions: Homo sapiens
P388/ADR = assay: NCI in vitro cytotoxicity, leukemia; type: cell-based; conditions: Mus musculus
A498 = assay: NCI in vitro cytotoxicity, renal cancer; type: cell-based; conditions: Homo sapiens
TE-671 = assay: NCI in vitro cytotoxicity, CNS cancer; type: cell-based; conditions: Homo sapiens
protein tyrosine kinase = protein tyrosine kinase test; type: biochemical
OVCAR-4 = assay: NCI in vitro cytotoxicity, ovarian cancer; type: cell-based; conditions: Homo sapiens
SK-MES-1 = assay: NCI in vitro cytotoxicity, non-small cell lung cancer; type: cell-based; conditions: Homo sapiens
OVCAR-8 = assay: NCI in vitro cytotoxicity, ovarian cancer; type: cell-based; conditions: Homo sapiens
SNB-44 = assay: NCI in vitro cytotoxicity, CNS cancer; type: cell-based; conditions: Homo sapiens, SNB44
HOLT-4 = assay: NCI in vitro cytotoxicity, leukemia; type: cell-based; conditions: Homo sapiens
CCRF-CEM = assay: NCI in vitro cytotoxicity, leukemia; type: cell-based; conditions: Homo sapiens
CAKI-1 = assay: NCI in vitro cytotoxicity, renal cancer; type: cell-based; conditions: Homo sapiens
H146 = assay: NCI in vitro cytotoxicity, small cell lung cancer; type: cell-based; conditions: Homo sapiens
HOP-62 = assay: NCI in vitro cytotoxicity, non-small cell lung cancer; type: cell-based; conditions: Homo sapiens
HT29 = assay: NCI in vitro cytotoxicity, colon cancer; type: cell-based; conditions: Homo sapiens, HT-29
SNB-75 = assay: NCI in vitro cytotoxicity, CNS cancer; type: cell-based; conditions: Homo sapiens
[2] = test system: cotton aphid (CA) Aphis gossypii; assay: pesticidal bioassay, cotton aphid (CA); type: in vivo; conditions: at 1 ppm
Description: Pesticidal bioassays were conducted at Eli Lilly Laboratories (Greenfield, Ind.) following standard procedures with eight indicator organisms: mosquito larvae (ML) Aedes aegypti (in the media), blowfly larvae (BFL) (1% in the diet), corn root worm (CRW) Diabrotics undecimcuntata howardii (in soil), two-spotted spider mite (2SSM) Tetranychus urticae (on foliage), southern army worm (SAW) Spodoptera eridania (on foliage), melon aphid (MA) (5000 ppm on foliage), cotton aphid (CA) Aphis gossypii, (on foliage) and Haemonchus contortus (HC) (a nematode, 0.1% in the media).

SW620 = assay: NCI in vitro cytotoxicity, colon cancer; type: cell-based; conditions: Homo sapiens, SW-620
LOVO = assay: NCI in vitro cytotoxicity, colon cancer; type: cell-based; conditions: Homo sapiens

CCCCCCCCCCC(O)C1CCC(C2CCC(C(O)CCCCCCCCCCC(O)CC3=CC(C)OC3=O)O2)O1 (centres unmarked) [Bullatacin]
9KB ED50 [1]: 6.188e-11 ng/mL
IC50 (H125): 2400 ng/mL (≈ 3.85 µM)
IC90 (H125): > 9260 ng/mL
IC50 (HCC-2998): 4050 ng/mL (≈ 6.5 µM)
IC50 (DLD-1): 2760 ng/mL (≈ 4.43 µM)
IC90 (DLD-1): 8620 ng/mL (≈ 13.8 µM)
IC50 (H69): 2440 ng/mL (≈ 3.92 µM)
IC90 (H69): 7520 ng/mL (≈ 12.1 µM)
IC50 (EKV-X): 0.115 ng/mL (≈ 0.000185 µM)
IC90 (EKV-X): > 92.6 ng/mL
IC50 (A2780): 0.0377 ng/mL (≈ 6.05e-05 µM)
IC90 (A2780): 0.65 ng/mL (≈ 0.00104 µM)
IC50 (H322): < 0.926 ng/mL
IC90 (H322): > 9260 ng/mL
IC50 (P388/ADR): < 0.926 ng/mL
IC90 (P388/ADR): 2560 ng/mL (≈ 4.11 µM)
IC50 (A498): 0.0424 ng/mL (≈ 6.81e-05 µM)
IC90 (A498): 3.71 ng/mL (≈ 0.00596 µM)
IC50 (TE-671): 0.0256 ng/mL (≈ 4.11e-05 µM)
IC90 (TE-671): 2.74 ng/mL (≈ 0.0044 µM)
result in the protein tyrosine kinase test (protein tyrosine kinase): negative result
IC50 (OVCAR-4): > 92.4 ng/mL
IC90 (OVCAR-4): > 92.4 ng/mL
IC50 (SK-MES-1): > 92.4 ng/mL
IC90 (SK-MES-1): > 92.4 ng/mL
IC50 (OVCAR-8): 2570 ng/mL (≈ 4.13 µM)
IC90 (OVCAR-8): 7650 ng/mL (≈ 12.3 µM)
IC50 (SNB-44): 4420 ng/mL (≈ 7.1 µM)
IC90 (SNB-44): > 9260 ng/mL
IC50 (HOLT-4): 1410 ng/mL (≈ 2.26 µM)
IC90 (HOLT-4): 4720 ng/mL (≈ 7.58 µM)
IC50 (CCRF-CEM): 0.0894 ng/mL (≈ 0.000144 µM)
IC90 (CCRF-CEM): 69.4 ng/mL (≈ 0.111 µM)
IC50 (CAKI-1): 3.94 ng/mL (≈ 0.00632 µM)
IC90 (CAKI-1): > 92.4 ng/mL
IC90 (H146): > 9260 ng/mL
IC50 (HOP-62): < 0.926 ng/mL
IC90 (HOP-62): 5130 ng/mL (≈ 8.24 µM)
IC50 (HT29): 3.84 ng/mL (≈ 0.00616 µM)
IC90 (HT29): > 92.4 ng/mL
IC50 (SNB-75): 3350 ng/mL (≈ 5.38 µM)
IC90 (SNB-75): > 9260 ng/mL
toxicity to cotton aphids [2]: significantly toxic
IC50 (SW620): 5.64 ng/mL (≈ 0.00905 µM)
IC90 (SW620): 5660 ng/mL (≈ 9.09 µM)
IC50 (LOVO): 0.915 ng/mL (≈ 0.00147 µM)
IC90 (LOVO): 4690 ng/mL (≈ 7.53 µM)
